Measurements reported in patent US9309179B2 (FAB PHARMA S.A.S., priority 2006, dated 2016).
In brackets after ≈: the same amount, converted by molar mass. Where two headings read alike, the source gives them in different places.

Columns and labels:
S. aureus 2018 VISA* = assay: MIC against resistant strains of S. aureus; format: cell-based; details: Staphylococcus aureus, read-out: MIC S. aureus 2018 VISA*
Protocol: (§1) Whole-cell antimicrobial activity was determined by broth microdilution method in microtiterplates. The compound was tested in serial 4-fold dilutions ranging from 0.06 to 64 mcg/mL. Test organisms were selected from the following laboratory strains: Staphylococcus aureus CIP 76.25, Staphylococcus aureus BAA39 MDR, Staphylococcus aureus NEM 14157 PeniR, Staphylococcus aureus CIP 54.146, Escherichia coli CIP 76.24. Bacteria were tested in Tryptic Soy (TS) or Mueller Hinton (MH) broth using an inoculum of 10^4 to 10^6 UFC/mL incubated at 37° C. for 20 h.
(§2) The minimum inhibitory concentration (MIC) was determined as the lowest concentration of compound at which no visible bacteria growth is observed (90% inhibition of absorbance of at […].)
(§3) In Vitro Activities Against Resistant Stains of S. aureus

S. aureus MRSA* = assay: MIC against resistant strains of S. aureus; format: cell-based; details: Staphylococcus aureus, read-out: MIC S. aureus MRSA*
Protocol: as §1, §2, §3

S. aureus 1651 LRSA* = assay: MIC against resistant strains of S. aureus; format: cell-based; details: Staphylococcus aureus, read-out: MIC S. aureus 1651 LRSA*
Protocol: as §1, §2, §3

S. aureus 2012 VISA = assay: MIC against resistant strains of S. aureus; format: cell-based; details: Staphylococcus aureus, read-out: MIC S. aureus 2012 VISA
Protocol: as §1, §2, §3

S. aureus 1652 LRSA = assay: MIC against resistant strains of S. aureus; format: cell-based; details: Staphylococcus aureus, read-out: MIC S. aureus 1652 LRSA
Protocol: as §1, §2, §3

S. aureus BAA39MDR = assay: MIC, broth microdilution; format: cell-based; details: Staphylococcus aureus, broth microdilution, 37° C., 20 h, read-out: MIC S. aureus BAA39MDR
Protocol: (§4) The compounds of the present invention are useful antibacterial agents having a selective spectrum of activity in vitro against standard bacterial strains which are used to screen for activity against pathogenic bacteria. […] The activity is presented as Minimum Inhibitory Concentration (MIC) expressed in μg/ml.
as §1, §2

E. coli CIP 76.24 = assay: MIC, broth microdilution; format: cell-based; details: Escherichia coli, CIP76; broth microdilution, 37° C., 20 h; read-out: MIC E. coli CIP 76.24
Protocol: as §4, §1, §2

S. aureus CIP 76.25 = assay: MIC, broth microdilution; format: cell-based; details: Staphylococcus aureus, CIP76; broth microdilution, 37° C., 20 h; read-out: MIC S. aureus CIP 76.25
Protocol: as §4, §1, §2

S. aureus NEM14157 = assay: MIC, broth microdilution; format: cell-based; details: Staphylococcus aureus, NEM14157; broth microdilution, 37° C., 20 h; read-out: MIC S. aureus NEM14157
Protocol: as §4, §1, §2

[1] = target: T1, recombinant E. coli FabI enzyme (Escherichia coli, UniProt P0AEK4); assay: FabI inhibition, fluorescence-based NADH assay; format: biochemical
T1 construct: 6-His (C); made in house; host or cells: prokaryotic expression vector
Protocol: Compound inhibitory activity of FabI enzyme is measured in vitro by the IC50 determination using a fluorescent based assay.
The protein FabI from E. coli is prepared and purified using standard methods for recombinant protein expression after cloning of the gene in a prokaryotic expression vector.
The biochemical activity of the FabI enzyme is assessed using the following method.
The assay buffer “AB” contains 50 mM Hepes pH7.5, 100 μM Dithiothreitol, 0.006% Triton-X100. The following components are added in a black polystyrene Costar plate up to a final volume of 55 μL: 1.5 μL DMSO, or inhibitor dissolved in DMSO and 53.5 μL of a FabI/NADH/NAD+ mixture in AB. After 60 min of pre-incubation at room temperature, the reaction is started by addition of 5 μL of Crotonoyl-CoA to a final volume of 60 μL. This reaction mixture is then composed of 40 nM FabI (produced in house from E. coli, C-terminal 6-His tagged), 20 μM NADH (Biochemika), 10 μM NAD+ (Biochemika), 50 μM Crotonoyl-CoA (Biochemika) and compound at defined concentration. Fluorescence intensity of NADH (lex=360 nm, lem=520 nm) is measured immediately after Crotonoyl-CoA addition, and 2 hours later by a Fluostar Optima (BMG). Enzyme activity is proportional to the signal decrease from which inhibition percentages are derived. For IC50 determinations, the inhibitor is tested at 6 to 10 different concentrations, and the related inhibitions are fitted to a classical langmuir equilibrium model using XLFIT (IDBS).
In Vitro Inhibition of Recombinant E. coli FabI Enzyme by Selected Compounds of Formula (I).

S. aureus USA300 MRSA* = assay: MIC against resistant strains of S. aureus; format: cell-based; details: Staphylococcus aureus, read-out: MIC S. aureus USA300 MRSA*
[2] = Methicillin Resistant S. aureus

T1 sequence (P0AEK4 whole entry): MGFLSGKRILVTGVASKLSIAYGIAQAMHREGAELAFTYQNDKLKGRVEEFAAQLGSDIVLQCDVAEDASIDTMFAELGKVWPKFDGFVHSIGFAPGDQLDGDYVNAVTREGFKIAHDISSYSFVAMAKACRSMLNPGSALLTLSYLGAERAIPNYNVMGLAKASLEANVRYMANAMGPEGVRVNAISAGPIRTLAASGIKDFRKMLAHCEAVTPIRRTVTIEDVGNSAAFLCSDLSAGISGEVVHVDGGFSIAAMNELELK

Compound | MIC (S. aureus 2018 VISA*; VISA strain) [µg/mL] | MIC (S. aureus MRSA*; [2]) [µg/mL] | MIC (S. aureus 1651 LRSA*; Linezolid resistant S. aureus) [µg/mL] | MIC (S. aureus 2012 VISA; VISA strain) [µg/mL] | MIC (S. aureus 1652 LRSA; Linezolid resistant S. aureus) [µg/mL] | MIC (S. aureus BAA39MDR) [µg/mL] | MIC (E. coli CIP 76.24) [µg/mL] | MIC (S. aureus CIP 76.25) [µg/mL] | MIC (S. aureus NEM14157) [µg/mL] | IC50 [1] [µM] | MIC (S. aureus USA300 MRSA*; [2]) [µg/mL] | MIC (S. aureus 2018 VISA*; VISA) [µg/mL] | MIC (S. aureus MRSA*) [µg/mL] | MIC (S. aureus 1651 LRSA*) [µg/mL] | MIC (S. aureus 2012 VISA; VISA) [µg/mL] | MIC (S. aureus 1652 LRSA) [µg/mL] | MIC (S. aureus USA300 MRSA*) [µg/mL]
CCc1ccc(Oc2cccnc2N)c(O)c1 [Example 21, 2-[(2-aminopyridin-3-yl)oxy]-5-ethylphenol] | 0.25 (≈ 1.09 µM) | 0.12 (≈ 0.521 µM) | 0.12 (≈ 0.521 µM) | 0.12 (≈ 0.521 µM) | 0.5 (≈ 2.17 µM) | 0.25 (≈ 1.09 µM) | 0.25 (≈ 1.09 µM) | 0.25 (≈ 1.09 µM) | 0.25 (≈ 1.09 µM) | 0.069 | 0.5 (≈ 2.17 µM) | – | – | – | – | – | –
CCc1ccc(Oc2ccc(NCCCO)cc2F)c(O)c1 [Example 48, 5-Ethyl-2-[2-fluoro-4-(3-hydroxy-propylamino)-phenoxy]-phenol] | 0.25 (≈ 0.819 µM) | 0.06 (≈ 0.196 µM) | 0.12 (≈ 0.393 µM) | 0.12 (≈ 0.393 µM) | 0.5 (≈ 1.64 µM) | – | 4 (≈ 13.1 µM) | 0.062 (≈ 0.203 µM) | – | – | 0.5 (≈ 1.64 µM) | – | – | – | – | – | –
CCc1ccc(Oc2ccc(S(C)(=O)=O)cc2F)c(O)c1 [Example 64, 5-ethyl-2-[2-fluoro-4-(methylsulfonyl)phenoxy]phenol] | – | – | – | – | – | 0.062 (≈ 0.2 µM) | 1 (≈ 3.22 µM) | 0.25 (≈ 0.806 µM) | 0.062 (≈ 0.2 µM) | 0.13 | – | – | – | – | – | – | –
CCCNS(=O)(=O)c1ccc(Oc2ccc(CC)cc2O)c(F)c1 [Example 71, 4-(4-ethyl-2-hydroxyphenoxy)-3-fluoro-N-propyl benzenesulfonamide] | – | – | – | – | – | 0.25 (≈ 0.707 µM) | 4 (≈ 11.3 µM) | < 0.062 | 0.062 (≈ 0.175 µM) | 0.33 | – | – | – | – | – | – | –
CCc1cc(O)c(Oc2cccnc2N)cc1F [Example 84, 2-(2-aminopyridin-3yloxy)-5-ethyl-4-fluorophenol] | – | – | – | – | – | 0.25 (≈ 1.01 µM) | 0.25 (≈ 1.01 µM) | 0.25 (≈ 1.01 µM) | 0.25 (≈ 1.01 µM) | 0.1 | – | – | – | – | – | – | –
CCc1cc(O)c(Oc2cccnc2F)cc1F [Example 87, 5-Ethyl-4-fluoro-2-(2-fluoropyridin-3yloxy)phenol] | – | – | – | – | – | 0.062 (≈ 0.247 µM) | 0.25 (≈ 0.995 µM) | 0.062 (≈ 0.247 µM) | 0.016 (≈ 0.0637 µM) | 0.031 | – | – | – | – | – | – | –
CN[C@H](CC(C)C)C(=O)N[C@H]1C(=O)N[C@@H](CC(N)=O)C(=O)N[C@H]2C(=O)N[C@H]3C(=O)N[C@H](C(=O)N[C@H](C(=O)O)c4cc(O)cc(O)c4-c4cc3ccc4O)[C@H](O)c3ccc(c(Cl)c3)Oc3cc2cc(c3O[C@@H]2O[C@H](CO)[C@@H](O)[C@H](O)[C@H]2O[C@H]2C[C@](C)(N)[C@H](O)[C@H](C)O2)Oc2ccc(cc2Cl)[C@H]1O [Vancomycin, reference compound] | – | – | – | – | – | – | – | – | – | – | – | 4 (≈ 2.76 µM) | 1 (≈ 0.69 µM) | 1 (≈ 0.69 µM) | 8 (≈ 5.52 µM) | 1 (≈ 0.69 µM) | 0.5 (≈ 0.345 µM)
